Test results published in patent US12319652B2, “Salts and solid forms of (R)-1-(5-methoxy-1H-indol-1-yl)-N,N-dimethylpropan-2-amine” (priority 2021, dated 2025).

Columns and labels:
[1] = Amorphous forms and thermal study (glass temperature Tg by DSC/TGA); type: physicochemical
[2] = Heat-up/cool-down crystallization screen of Compound 1 HCl
Method: A heat up/cool down crystallization screen was performed. An compound 1 HCl Form A was used as input material. […]

[3] = Equilibrium humidity evaluation of crystalline compound 1 HCl Form A (95% RH/20° C.); type: physicochemical; details: for XRPD (t = 0) / XRPD (t = 5 d) / XRPD (t = 10 d): 95% RH @ 20° C.; for DSC onset / XRPD: t = 10 days, 95 % RH @ 20° C.
Method: The stability of crystalline compound 1 HCl Form A was evaluated. Absorbent compound 1·Cl (Form A), (100 mg) was maintained, open-capped at 95% RH/20° C. and monitored at t=0, t=5 d and t=10 d, time points.
While absorbent Compound 1 HCl Form A), (100 mg) was placed open-capped inside double, cable-tied, electrostatic polythene bags (to mimic a typical packaging configuration) and placed inside the same humidity chamber at 95% RH at 20° C. and monitored at t=0, t=5 d and t=10 d time points. Stability of compound 1·HCl (Form A) at 40° C./75% RH was examined as part of the salt screen, and was stable over 10 d.

[4] = 2-Propanol 3.0 vol + Water 75 μl
[5] = Chlorobenzene 3.0 vol + MeOH 175 μl
[6] = Ethyl formate 3.0 vol + MeOH 225 μl
[7] = Isopropyl acetate 3.0 vol + IPA 3725 μl
[8] = Nitromethane 3.0 vol + MeOH 50 μl
[9] = Double polyethylene bagged, open vial

COc1ccc2c(ccn2C[C@@H](C)N(C)C)c1.Cl [amorphous compound 1 HCl]
TGA % Δwt. ([1]; 206.7° C., comment: De-solvation): −18.2%,
DSC measurements, Endset ([1]; DSC thermal event Tg): 48.35 °C
DSC measurements, Integral ([1]; DSC thermal event Tg): −2.2 Jg^−1
DSC measurements, Onset ([1]; DSC thermal event Tg): 37.07 °C
DSC measurements, Peak ([1]; DSC thermal event Tg): 43.00 °C
Form Assignment ([1]; heated up past the melt event on a hot stage microscope): Amorphous

COc1ccc2c(ccn2C[C@@H](C)N(C)C)c1.Cl [compound 1 HCl Form A]
Observations (t = -, T = 70° C.) [2, 4]: Pink solution
XRPD (moist pellet) [2, 4]: Form A
XRPD (oven dried) [2, 4]: Form A
Observations (t = -, T = 70° C.) ([2]; Acetone 3.0 vol + Water 50 μl): Pink solution
XRPD (moist pellet) ([2]; Acetone 3.0 vol + Water 50 μl): Form A
XRPD (oven dried) ([2]; Acetone 3.0 vol + Water 50 μl): Form A
Observations (t = -, T = 70° C.) [2, 5]: Pink solution
XRPD (moist pellet) [2, 5]: Form A
XRPD (oven dried) [2, 5]: Form A
Observations (t = -, T = 70° C.) ([2]; DCM 3.0 vol + MeOH 125 μl): Pink solution
XRPD (moist pellet) ([2]; DCM 3.0 vol + MeOH 125 μl): Form A
XRPD (oven dried) ([2]; DCM 3.0 vol + MeOH 125 μl): Form A
Observations (t = -, T = 70° C.) ([2]; EtOAc 3.0 vol + EtOH 1375 μl): Pink solution
XRPD (moist pellet) ([2]; EtOAc 3.0 vol + EtOH 1375 μl): Form A
XRPD (oven dried) ([2]; EtOAc 3.0 vol + EtOH 1375 μl): Form A
Observations (t = -, T = 70° C.) ([2]; EtOH 3.0 vol + Water 50 μl): Pink solution
XRPD (moist pellet) ([2]; EtOH 3.0 vol + Water 50 μl): Form A
XRPD (oven dried) ([2]; EtOH 3.0 vol + Water 50 μl): Form A
Observations (t = -, T = 70° C.) [2, 6]: Pink solution
XRPD (moist pellet) [2, 6]: Form A
XRPD (oven dried) [2, 6]: Form A
Observations (t = -, T = 70° C.) [2, 7]: Suspension
XRPD (moist pellet) [2, 7]: Form A
XRPD (oven dried) [2, 7]: Form A
Observations (t = -, T = 70° C.) ([2]; MEK 3.0 vol + Water 50 μl): Pink solution
XRPD (moist pellet) ([2]; MEK 3.0 vol + Water 50 μl): Form A
XRPD (oven dried) ([2]; MEK 3.0 vol + Water 50 μl): Form A
Observations (t = -, T = 70° C.) ([2]; MeCN 3.0 vol + Water 25 μl): Pink solution
XRPD (oven dried) ([2]; MeCN 3.0 vol + Water 25 μl): Form A
Observations (t = -, T = 70° C.) ([2]; MeOH 3.0 vol + water 25 μl): Pink solution
XRPD (moist pellet) ([2]; MeOH 3.0 vol + water 25 μl): Form A
XRPD (oven dried) ([2]; MeOH 3.0 vol + water 25 μl): Form A
Observations (t = -, T = 70° C.) ([2]; MeTHF 3.0 vol + MeOH 425 μl): Pink solution
XRPD (moist pellet) ([2]; MeTHF 3.0 vol + MeOH 425 μl): Form A
XRPD (oven dried) ([2]; MeTHF 3.0 vol + MeOH 425 μl): Form A
Observations (t = -, T = 70° C.) ([2]; Methyl acetate 3.0 vol + Water 75 μl): Pink solution
Observations (t = -, T = 70° C.) [2, 8]: Pink solution
XRPD (moist pellet) [2, 8]: Form A
XRPD (oven dried) [2, 8]: Form A
Observations (t = -, T = 70° C.) ([2]; TBME 3.0 vol + MeOH 425 μl): Pink solution
XRPD (moist pellet) ([2]; TBME 3.0 vol + MeOH 425 μl): Form A
XRPD (oven dried) ([2]; TBME 3.0 vol + MeOH 425 μl): Form A
Observations (t = -, T = 70° C.) ([2]; THE 3.0 vol + Water 50 μl): Pink solution
XRPD (moist pellet) ([2]; THE 3.0 vol + Water 50 μl): Form A
XRPD (oven dried) ([2]; THE 3.0 vol + Water 50 μl): Form A
Observations (t = -, T = 70° C.) ([2]; Toluene 3.0 vol + MeOH 200 μl): Pink solution
XRPD (moist pellet) ([2]; Toluene 3.0 vol + MeOH 200 μl): Form A
XRPD (oven dried) ([2]; Toluene 3.0 vol + MeOH 200 μl): Form A
Observations (t = -, T = 70° C.) ([2]; Water 3.0 vol, no co-solvent): Pink solution
XRPD (t = 0) [3, 9]: Form A
XRPD (t = 5 d) [3, 9]: Form A
XRPD (t = 10 d) [3, 9]: Form A
DSC onset [3, 9]: 203.7 °C
XRPD [3, 9]: Form A
XRPD (t = 0) ([3]; Open vial): Form A
XRPD (t = 5 d) ([3]; Open vial): Form A
XRPD (t = 10 d) ([3]; Open vial): Form A
DSC onset ([3]; Open vial): 204.4 °C
XRPD ([3]; Open vial): Form A
